Laboratory results published in patent EP0371438B1, “3,5-Di-tertiary-butyl-4-hydroxyphenyl-1,3,4-thiadiazoles, and oxadiazoles and 3,5-di-tertiary-butyl-4-hydroxiphenyl- 1,2,4-thiadiazoles, -oxadiazoles as antiinflammatory agents” (WARNER-LAMBERT COMPANY, priority 1988, dated 1990).

Assays:
5-lipoxygenase = biological target: T1, 5-lipoxygenase (Rattus norvegicus, UniProt P12527); assay: ARBL whole cell 5-lipoxygenase assay (LTB4 formation, RIA); assay type: cell-based; conditions: IC50 for LTB4 inhibition; RBL-1 cells, calcium ionophore A23187
T1 construct: host or cells: RBL-1 (rat basophilic leukemia)
T1 sequence (P12527 1-673): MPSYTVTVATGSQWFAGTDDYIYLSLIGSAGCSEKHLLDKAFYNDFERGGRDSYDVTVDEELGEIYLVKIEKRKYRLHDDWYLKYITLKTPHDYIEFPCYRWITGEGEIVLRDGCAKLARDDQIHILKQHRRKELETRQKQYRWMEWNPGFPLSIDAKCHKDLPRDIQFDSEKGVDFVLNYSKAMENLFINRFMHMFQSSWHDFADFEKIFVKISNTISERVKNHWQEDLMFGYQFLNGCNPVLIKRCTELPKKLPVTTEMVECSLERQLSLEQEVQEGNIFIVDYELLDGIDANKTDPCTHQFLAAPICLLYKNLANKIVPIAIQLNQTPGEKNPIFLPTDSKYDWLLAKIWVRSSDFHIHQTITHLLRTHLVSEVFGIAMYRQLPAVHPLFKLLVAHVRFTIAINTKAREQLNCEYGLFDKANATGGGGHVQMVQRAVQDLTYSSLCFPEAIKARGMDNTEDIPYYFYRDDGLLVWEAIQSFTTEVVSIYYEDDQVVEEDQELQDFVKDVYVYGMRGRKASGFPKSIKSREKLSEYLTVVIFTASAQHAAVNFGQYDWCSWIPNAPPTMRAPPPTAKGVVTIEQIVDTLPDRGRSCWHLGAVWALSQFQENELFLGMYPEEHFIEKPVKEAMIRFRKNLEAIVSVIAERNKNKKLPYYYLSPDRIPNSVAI
Method: (§1) ARBL/ARBC Whole Cell 5-Lipoxygenase and Cyclooxygenase Assays
(§2) The rat basophilic leukemia cell line (RBL-1) was obtained from the American Type Culture Collection (Rockville, MD).
(§3) Radioimmunoassay (RIA) kits of LTB₄ and [drawing 16] were obtained from Amersham (Arlington Heights, IL) and Seragen (Boston, MA), respectively.
(§4) RBL-1 cells are grown in suspension culture in Eagle's minimum essential medium supplemented with 12% fetal bovine serum at 37°C in an incubator supplied with air-5% carbon dioxide. Cells are harvested by centrifugation. They are washed with cold phosphate buffered saline pH 7.4 (PBS; NaCl, 7.1 g; Na₂HPO₄, 1.15 g; KH₂PO₄, 0.2 g; and KCl, 0.2 g/l). Cells are finally suspended in PBS containing 1.0 mM calcium at a density of 2x10⁶ cells/ml. Cells are incubated with and without test agent (in DMSO) (1% DMSO is without effect on arachidonic acid metabolism) for ten minutes at room temperature. Calcium ionophore A23187 (5 »M) is added and cells are incubated for seven minutes at 37°C. The reaction is stopped by chilling the tubes on ice for ten minutes. Cells are separated by centrifugation and the supernatant is stored at -20°. Aliquots (100 »l) are analyzed for LTB₄ and [drawing 17] using radioimmunoassay kits as provided by the supplier.
(§5) Table 1 contains biochemical data obtained from this whole cell assay as IC₅₀s which are calculated as the amount of test compound causing 50% inhibition of LTB₄ or [drawing 18] formation.

cyclooxygenase = assay: ARBC whole cell cyclooxygenase assay (PGF2α formation, RIA); assay type: cell-based, rat; conditions: IC50 for PGF2α inhibition; RBL-1 cells, calcium ionophore A23187
Method: as §1, §2, §3, §4, §5

gastric ulcers = assay: Gastric ulcerogenicity (UD); assay type: in vivo, Male outbred Wistar rats; conditions: PO, dose which produces a 50% occurrence of ulcers in rats; result given @ 200; compound tested as its sodium salt
Method: Gastric Ulcerogenicity (UD): Protocol
Male outbred Wistar rats (100-250 gms) are fasted for 24 hours. After fasting, test compounds are administered orally (in 2 ml/kg of 0.5% hydroxypropyl methylcellulose) and the rats are denied access to food and water for six more hours. The rats are then sacrificed with CO₂ so that the stomachs can be removed, opened along the greater curvature, and evaluated for the presence of gastric ulcers. Results are expressed as the percent of rats with gastric ulcers at a given dose or as the UD₅₀ (the dose which causes ulcers in 50% of the rats).

[1] = test system: Mycobacterium - Induced Rat Footpad Edema; assay: Mycobacterium-induced rat footpad edema assay (MFE); assay type: in vivo; conditions: PO, swelling 72 hours after injection, compound tested as its sodium salt, read-out: MFE ID₄₀
Method: Mycobacterium - Induced Rat Footpad Edema Assay (MFE): Protocol Mycobacterium butyricum (5 mg/ml) is suspended in paraffin oil by sonication for ten minutes in an ice bath. Footpad edema is induced on Day 0 by injecting 0.1 ml of the Mycobacterium mixture into the left hindpaw of lightly anesthetized rats. Swelling in the injected hindpaw is determined by mercury plethysmography 72 hours after injection. Groups of rats are treated with test compounds (suspended in 0.5% hydroxypropyl methylcellulose with 0.2% Tween-80) or vehicle one hour before Mycobacterium injection and on Days 1 and 2. Inhibition of swelling is determined by comparing the change in hindpaw volume in compound-and vehicle-treated rats. An ID₄₀ (the dose at which swelling is inhibited by 40%) is calculated by probit analysis.

[2] = test system: Carrageenan-Induced Rat Foot Paw Edema; assay: Carrageenan-induced rat foot paw edema-2 (CFE-2) assay; assay type: in vivo; conditions: 5 h, PO, dosed one hour before carrageenan, edema measured five hours after, compound tested as its sodium salt, read-out: CFE-2 ID₄₀
Method: Carrageenan-Induced Rat Foot Paw Edema-2 (CFE-2) Assay: Protocol
Carrageenan solution (1% w/v) is prepared by dissolving 100 mg carrageenan (Marine Colloidal Div., Springfield, NJ) in 10 ml of sterile saline (0.9%) solution (Travenol). The solution is vortexed for 30 to 45 minutes. Animals are dosed with compound one hour before carrageenan challenge. Foot paw edema is induced by injecting 0.10 ml of the 1% carrageenan subcutaneously into the plantar portion of the right hind paw of each rat under light anesthesia. Initial foot paw volume is measured immediately following carrageenan challenge using mercury plethysmography (Buxco Electronics). Edema is measured five hours after carrageenan. The difference between the five-hour and the initial paw volume is expressed as delta edema. The delta edema for each test group of animals is used to calculate the percent inhibition of edema achieved by the compound at the test dose compared with the vehicle control group. The ID₄₀ (the dose at which swelling is inhibited by 40%) is calculated by probit analysis for the dose at which 40 percent inhibition occurs.

| SMILES | IC50 (5-lipoxygenase) | IC50 (cyclooxygenase) | UD₅₀ (gastric ulcers) | ED40 [1] | ED40 [2] |
| --- | --- | --- | --- | --- | --- |
| CC(C)(C)c1cc(-c2n[nH]c(=O)o2)cc(C(C)(C)C)c1O [Example 7, 5-[3,5-Bis(1,1-dimethylethyl)-4-hydroxyphenyl]-1,3,4-oxadiazol-2(3H)-one] | 1.4 µM | 2.5 µM |  |  |  |
| CC(C)(C)c1cc(-c2n[nH]c(=O)[nH]2)cc(C(C)(C)C)c1O [Example 15, 5-[3,5-Bis(1,1-dimethylethyl)-4-hydroxyphenyl]-2,4-dihydro-3H-1,2,4-triazol-3-one] | 4.5 µM | 5.5 µM |  |  |  |
| CC(C)(C)c1cc(-c2n[nH]c(=S)o2)cc(C(C)(C)C)c1O [Example 8, 5-[3,5-Bis(1,1-dimethylethyl)-4-hydroxyphenyl]-1,3,4-oxadiazole-2(3H)-thione] | 10 µM | 8 µM |  |  |  |

Second part, led by results:

| IC50 (5-lipoxygenase) | IC50 (cyclooxygenase) | SMILES | UD₅₀ (gastric ulcers) | ED40 [1] | ED40 [2] |
| --- | --- | --- | --- | --- | --- |
| 1.4 µM | 0.13 µM | CC(C)(C)c1cc(-c2nnc(N)s2)cc(C(C)(C)C)c1O [Example 10, 4-(5-Amino-1,3,4-thiadiazol-2-yl)-2,6-bis(1,1-dimethylethyl)phenol] |  |  |  |
| 5.7 µM | 0.86 µM | CC(C)(C)c1cc(-c2nnc(S)s2)cc(C(C)(C)C)c1O [Example 4, 5-[3,5-Bis(1,1-dimethylethyl)-4-hydroxyphenyl]-1,3,4-thiadiazole-2(3H)-thione] | N @ 200 (N is 0% of rats having ulcers at 200 mg.) | 3.2 mg/kg | 1.9 mg/kg |
